The text below walks through data of ChEMBL document CHEMBL1131365, “Identification and SAR for a selective, nonpeptidyl thrombin inhibitor” (Bioorg Med Chem Lett, 1998).

The target of one test is Prothrombin (Homo sapiens, UniProt P00734). Put plainly: Compound was evaluated for its inhibitory activity against human thrombin.
The next test deals with Serine protease 1 (Homo sapiens, UniProt P07477). The experiment in a line: Compound was evaluated for its inhibitory activity against trypsin.
Chain of Serine protease 1 (P07477 whole entry): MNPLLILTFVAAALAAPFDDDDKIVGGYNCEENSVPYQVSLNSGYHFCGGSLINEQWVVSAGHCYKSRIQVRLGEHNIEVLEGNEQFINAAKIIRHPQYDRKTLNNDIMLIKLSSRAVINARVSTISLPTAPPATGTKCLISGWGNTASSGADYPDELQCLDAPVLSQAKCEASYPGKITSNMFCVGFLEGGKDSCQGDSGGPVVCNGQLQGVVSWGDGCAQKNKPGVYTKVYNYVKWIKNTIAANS

In the case of `c1ccc(COc2ccc(C[n+]3ccccc3)cc2)cc1`, on Prothrombin, the Ki was > 500 µM.
Take `Nc1ccc(Cc2ccc(OCc3ccccc3)cc2)cc1`: the Ki at Serine protease 1 and at Prothrombin was > 10 µM throughout.
On Prothrombin, `NC1CCN(Cc2ccc(OCc3ccccc3)cc2)CC1` had a Ki of 581 µM.
As to `Nc1cc[n+](Cc2ccc(OC(CCc3ccccc3)c3ccccc3)cc2)cc1` (stereo unspecified), the Ki was determined as 16 µM at Serine protease 1 and 0.16 µM on Prothrombin.
The matching figures for `c1ccc(C(Oc2ccc(CNc3ccncc3)cc2)c2ccccc2)cc1`: 77 µM and 1.3 µM.
Regarding `Nc1cc[n+](Cc2ccc(OCc3ccccc3)cc2)cc1`, the figures for the inhibition constant Ki on Serine protease 1 and at Prothrombin were 77 µM and 0.7 µM, respectively.
The matching figures for `c1ccc(COc2ccc(CNc3ccncc3)cc2)cc1`: 233 µM and 4.7 µM.
On to `Nc1cc[n+](Cc2ccc(OC(c3ccccc3)c3ccccc3)cc2)cc1`, for which the Ki at Serine protease 1 amounted to 517 µM; at Prothrombin, 0.058 µM.
Consider `c1ccc(COc2ccc(CCNc3ccncc3)cc2)cc1`, for which the values for the Ki on Serine protease 1 and on Prothrombin were 568 µM and 7.9 µM, respectively.

Broadly, the Ki is a dissociation constant, usually derived from enzyme kinetics or from competition with a known ligand. A lower Ki goes with tighter binding.
